This is an account of results in patent US11667645B2, “Granzyme B directed imaging and therapy” (CytoSite Biopharma Inc., priority 2018, dated 2023).

The structures appear in SMILES notation.

Granzyme B (human lymphocytes), sequence (P10144 21-247): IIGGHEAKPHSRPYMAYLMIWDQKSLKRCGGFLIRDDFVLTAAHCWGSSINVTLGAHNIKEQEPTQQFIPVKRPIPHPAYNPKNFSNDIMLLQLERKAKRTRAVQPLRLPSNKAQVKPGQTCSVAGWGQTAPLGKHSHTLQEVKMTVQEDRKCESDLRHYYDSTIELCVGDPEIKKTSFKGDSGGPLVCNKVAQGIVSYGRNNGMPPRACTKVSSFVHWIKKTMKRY

For the assay, the target named is Granzyme B (human lymphocytes) (Homo sapiens (Human), UniProt P10144). Put plainly: human Granzyme B biochemical assay. To be noted: Granzyme B (human lymphocytes) 5 nM, substrate Ac-IETD-AFC 200 μM, Cpd incubation with enzyme 30 mins, 22° C., read time 60 mins; read-out: IC50. Summed up:
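Fluorogenic Ac-IETD-AFC cleavage (Ex 400/Em 505 nm) read after 60 min at 22 °C, following 30 min, 22 °C enzyme–compound pre-incubation. Working stocks: enzyme 10 nM in 0.1% BSA buffer, substrate 800 µM, compound 8 points, 3.16-fold from 40 µM. Controls set 0% (DMSO) and 100% (standard inhibitor) inhibition; IC50 fitted.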
The term IC50 denotes the concentration needed to halve the response being measured. With `O=C(Cc1ccccc1)N[C@@H](Cc1ccc(F)cc1)C(=O)N[C@H]1CCc2cccc3c2N(C1=O)[C@H](C(=O)NCc1c[nH]nn1)C3` [Compound C022, (2S,5S)-5-[(S)-3-(4-Fluoro-phenyl)-2-phenylacetylamino-propionylamino]-4-oxo-1,2,4,5,6,7-hexahydro-azepino[3,2,1-hi]indole-2-carboxylic acid (1H-[1,2,3]triazol-4-ylmethyl)-amide], the IC50 is over 5 µM.

As to `O=C(N[C@H](C(=O)N[C@H]1CCc2cccc3c2N(C1=O)[C@H](C(=O)NCc1c[nH]nn1)C3)C1CCCC1)c1ccccc1` [Compound C076, (2S,5S)-5-((S)-2-Benzoylamino-2-cyclopentyl-acetylamino)-4-oxo-1,2,4,5,6,7-hexahydro-azepino[3,2,1-hi]indole-2-carboxylic acid (1H-[1,2,3]triazol-4-ylmethyl)-amide], the IC50 lay in the range of 0.001 to 0.3 µM.

For `CC[C@H](C)[C@H](NC(=O)COCCF)C(=O)N[C@H]1CCc2cccc3c2N(C1=O)[C@H](C(=O)NCc1ncn[nH]1)C3` [Compound C163, (2S,5S)-5-{(2S,3S)-2-[2-(2-Fluoro-ethoxy)-acetylamino]-3-methyl-pentanoylamino}-4-oxo-1,2,4,5,6,7-hexahydro-azepino[3,2,1-hi]indole-2-carboxylic acid (2H-[1,2,4]triazol-3-ylmethyl)-amide], the IC50 is over 5 µM. As for `CC(=O)N[C@H](C(=O)N[C@H]1CCc2cccc3c2N(C1=O)[C@H](C(=O)N[C@H](C)C(=O)O)C3)C(C)C` [Compound C087, (R)-2-{[(2S,5S)-5-((S)-2-Acetylamino-3-methyl-butyrylamino)-4-oxo-1,2,4,5,6,7-hexahydro-azepino[3,2,1-hi]indole-2-carbonyl]-amino}-propionicacid], the IC50 was over 5 µM.

For `COC(=O)C[C@H](NC(=O)[C@@H]1Cc2cccc3c2N1C(=O)[C@@H](NC(=O)[C@@H](NC(C)=O)C(C)C)CC3)C(=O)OC` [Compound C093, (S)-2-{[(2S,5S)-5-((S)-2-Acetylamino-3-methyl-butyrylamino)-4-oxo-1,2,4,5,6,7-hexahydro-azepino[3,2,1-hi]indole-2-carbonyl]-amino}-succinic acid dimethyl ester], the IC50 is over 5 µM. Take `O=C(Cc1csc2ccccc12)N[C@@H](Cc1ccccc1)C(=O)N[C@H]1CCc2cccc3c2N(C1=O)[C@H](C(=O)NCc1c[nH]nn1)C3` [Compound C004, (2S,5S)-5-[(S)-2-(2-Benzo[b]thiophen-3-yl-acetylamino)-3-phenyl-propionylamino]-4-oxo-1,2,4,5,6,7-hexahydro-azepino[3,2,1-hi]indole-2-carboxylic acid (1H-[1,2,3]triazol-4-ylmethyl)-amide]: the IC50 was over 5 µM.

As for `COC(=O)[C@H](CO)NC(=O)[C@@H]1Cc2cccc3c2N1C(=O)[C@@H](NC(=O)[C@@H](NC(C)=O)C(C)C)CC3` [Compound C091, (S)-2-{[(2S,5S)-5-((S)-2-Acetylamino-3-methyl-butyrylamino)-4-oxo-1,2,4,5,6,7-hexahydro-azepino[3,2,1-hi]indole-2-carbonyl]-amino}-3-hydroxy-propionic acid methyl ester], the IC50 is over 5 µM.

For `CC(=O)N[C@H]1CCc2cccc3c2N(C1=O)[C@H](C(=O)NCc1c[nH]nn1)C3` [Compound C148, (2S,5S)-5-Acetylamino-4-oxo-1,2,4,5,6,7-hexahydro-azepino[3,2,1-hi]indole-2-carboxylic acid (1H-[1,2,3]triazol-4-ylmethyl)-amide], the IC50 is over 5 µM. With `O=C(O)CC[C@H](NC(=O)Cc1ccccc1)C(=O)N[C@H]1CCc2cccc3c2N(C1=O)[C@H](C(=O)NCc1c[nH]nn1)C3` [Compound C019, (S)-4-{(2S,5S)-4-Oxo-2-[(1H-[1,2,3]triazol-4-ylmethyl)-carbamoyl]-1,2,4,5,6,7-hexahydro-azepino[3,2,1-hi]indol-5-ylcarbamoyl}-4-phenylacetylamino-butyric acid] the figure was over 5 µM; with `CC[C@H](C)[C@H](NC(=O)COCCF)C(=O)N[C@H]1CCc2cccc3c2N(C1=O)[C@H](C(=O)NCc1cccc(Cl)c1)C3` [Compound C131, (2S,5S)-5-{(2S,3S)-2-[2-(2-Fluoro-ethoxy)-acetylamino]-3-methyl-pentanoylamino}-4-oxo-1,2,4,5,6,7-hexahydro-azepino[3,2,1-hi]indole-2-carboxylic acid 3-chloro-benzylamide], over 5 µM; with `CC[C@H](C)[C@H](NC(=O)COCCF)C(=O)N[C@H]1CCc2cccc3c2N(C1=O)[C@H](C(=O)NCc1cccnc1)C3` [Compound C122, (2S,5S)-5-{(2S,3S)-2-[2-(2-Fluoro-ethoxy)-acetylamino]-3-methyl-pentanoylamino}-4-oxo-1,2,4,5,6,7-hexahydro-azepino[3,2,1-hi]indole-2-carboxylic acid (pyridin-3-ylmethyl)-amide], over 5 µM.

With `CC[C@H](C)[C@H](NC(=O)c1ccccc1OC)C(=O)N[C@H]1CCc2cccc3c2N(C1=O)[C@H](C(=O)NCc1c[nH]nn1)C3` [Compound C060, (2S,5S)-5-[(2S,3S)-2-(2-Methoxy-benzoylamino)-3-methyl-pentanoylamino]-4-oxo-1,2,4,5,6,7-hexahydro-azepino[3,2,1-hi]indole-2-carboxylic acid(1H-[1,2,3]triazol-4-ylmethyl)-amide], the IC50 was 0.001 to 0.3 µM. With `CC[C@H](C)[C@H](NC(=O)COCCF)C(=O)N[C@H]1CCc2cccc3c2N(C1=O)[C@H](C(=O)NCc1cc[nH]c1)C3` [Compound C107, (2S,5S)-5-{(2S,3S)-2-[2-(2-Fluoro-ethoxy)-acetylamino]-3-methyl-pentanoylamino}-4-oxo-1,2,4,5,6,7-hexahydro-azepino[3,2,1-hi]indole-2-carboxylic acid (1H-pyrrol-3-ylmethyl)-amide], the IC50 is over 5 µM. With `CC[C@H](C)[C@H](NC(=O)COCCF)C(=O)N[C@H]1CN(C)c2cccc3c2N(C1=O)[C@H](C(=O)NCc1c[nH]nn1)C3` [Compound C144, (3S,6S)-3-{(2S,3S)-2-[2-(2-Fluoro-ethoxy)-acetylamino]-3-methyl-pentanoylamino}-1-methyl-4-oxo-1,2,3,4,6,7-hexahydro-[1,4]diazepino[3,2,1-hi]indole-6-carboxylic acid (1H-[1,2,3]triazol-4-ylmethyl)-amide] the figure was 0.001 to 0.3 µM. For the molecule `CC[C@H](C)[C@H](NC(=O)c1ccccn1)C(=O)N[C@H]1CCc2cccc3c2N(C1=O)[C@H](C(=O)NCc1c[nH]nn1)C3` [Compound C066, (2S,5S)-5-{(2S,3S)-3-Methyl-2-[(pyridine-2-carbonyl)-amino]-pentanoylamino}-4-oxo-1,2,4,5,6,7-hexahydro-azepino[3,2,1-hi]indole-2-carboxylicacid (1H-[1,2,3]triazol-4-ylmethyl)-amide], the IC50 fell in the range of 0.001 to 0.3 µM. In the case of `CC[C@H](C)[C@H](NC(=O)COCCF)C(=O)N[C@H]1CCc2cccc3c2N(C1=O)[C@H](C(=O)NCc1ccc(C)cc1)C3` [Compound C129, (2S,5S)-5-{(2S,3S)-2-[2-(2-Fluoro-ethoxy)-acetylamino]-3-methyl-pentanoylamino}-4-oxo-1,2,4,5,6,7-hexahydro-azepino[3,2,1-hi]indole-2-carboxylic acid 4-methyl-benzylamide], the half-inhibitory concentration (IC50) was over 5 µM. With `CC[C@H](C)[C@H](NC(=O)c1ccc(OC)cc1)C(=O)N[C@H]1CCc2cccc3c2N(C1=O)[C@H](C(=O)NCc1c[nH]nn1)C3` [Compound C062, (2S,5S)-5-[(2S,3S)-2-(4-Methoxy-benzoylamino)-3-methyl-pentanoylamino]-4-oxo-1,2,4,5,6,7-hexahydro-azepino[3,2,1-hi]indole-2-carboxylic acid(1H-[1,2,3]triazol-4-ylmethyl)-amide] the figure was 0.001 to 0.3 µM.

Regarding `CC[C@H](C)[C@H](NC(=O)COCCF)C(=O)N[C@H]1CCc2cccc3c2N(C1=O)[C@H](C(=O)NCc1cnco1)C3` [Compound C111, (2S,5S)-5-{(2S,3S)-2-[2-(2-Fluoro-ethoxy)-acetylamino]-3-methyl-pentanoylamino}-4-oxo-1,2,4,5,6,7-hexahydro-azepino[3,2,1-hi]indole-2-carboxylic acid (oxazol-5-ylmethyl)-amide], the IC50 is over 5 µM. On to `CC[C@H](C)[C@H](NC(=O)COCCF)C(=O)N[C@H]1CCc2cccc3c2N(C1=O)[C@H](C(=O)NCc1cccc(C)c1)C3` [Compound C128, (2S,5S)-5-{(2S,3S)-2-[2-(2-Fluoro-ethoxy)-acetylamino]-3-methyl-pentanoylamino}-4-oxo-1,2,4,5,6,7-hexahydro-azepino[3,2,1-hi]indole-2-carboxylic acid 3-methyl-benzylamide], for which the IC50 is over 5 µM. In the case of `CC(C)(C)[C@H](NC(=O)c1ccccc1)C(=O)N[C@H]1CCc2cccc3c2N(C1=O)[C@H](C(=O)NCc1c[nH]nn1)C3` [Compound C046, (2S,5S)-5-((S)-2-Benzoylamino-3,3-dimethyl-butyrylamino)-4-oxo-1,2,4,5,6,7-hexahydro-azepino[3,2,1-hi]indole-2-carboxylic acid (1H-[1,2,3]triazol-4-ylmethyl)-amide], the IC50 is 0.301 to 1 µM. With `CC[C@H](C)[C@H](NC(=O)COCCF)C(=O)N[C@H]1CCc2cccc3c2N(C1=O)[C@H](C(=O)NCc1ccc[nH]1)C3` [Compound C104, (2S,5S)-5-{(2S,3S)-2-[2-(2-Fluoro-ethoxy)-acetylamino]-3-methyl-pentanoylamino}-4-oxo-1,2,4,5,6,7-hexahydro-azepino[3,2,1-hi]indole-2-carboxylic acid (1H-pyrrol-2-ylmethyl)-amide], the IC50 was over 5 µM. In the case of `CC(=O)N[C@@H](CC(C)C)C(=O)N[C@H]1CCc2cccc3c2N(C1=O)[C@H](C(=O)NCc1c[nH]nn1)C3` [Compound C027, (2S,5S)-5-((S)-2-Acetylamino-4-methyl-pentanoylamino)-4-oxo-1,2,4,5,6,7-hexahydro-azepino[3,2,1-hi]indole-2-carboxylic acid (1H-[1,2,3]triazol-4-ylmethyl)-amide], the IC50 is 1 to 5 µM.
